The conditions of data set [1]: for Death Rate: both, ICR, 14 days. The protocol: ICR mice (18-22 g) were acquired from the Laboratory Animal Services Centre, The Chinese University of Hong Kong. These animals were housed in an animal room with 12 h of day and dark cycles, and the temperature maintained at around 25° C. There were 4 male and 4 female in each treatment and control group. They were treated with either diacetyl or glyceraldehyde. Diacetyl and glyceraldehyde were dissolved with saline and administered to the mice by intravenous injection with the amount indicated. […] Mortality was recorded daily for the calculation of […] (LD50). All surviving animals were euthanized with diethyl-ether at the end of the experiment.

Another data set relates to SW480 cells. The data set can be described thus: Cytotoxicity assay (cell survival rate, MTT). To be noted: substrate alone, 2DG for 72 hours. The class given is cell-based. As to the method:
(§1) HepG2 cells, SKOV3 cells, HCT116 cells and CaCo2 cells were cultured in DMEM medium, SW480 cells in 1640 medium, and HT29 cells in McCoy’s 5A medium. […] In cytotoxicity assays, cells were seeded at 1 × 10^5 cells/well in 96 well plates with full medium. In GSH assay and Western blot analysis, cells were seeded at 3× 10^6 cells/well in 6 well plates. The AKR1Bs substrates’ cytotoxicity was assessed by cell survival rate using MTT assay. After the cells were treated with the substrates for the length of time indicated, MTT was added to a final concentration of 0.5 mg/ml in each well of a 96-well plate, and the plates were incubated at 37° C. for 4 hour. Then DMSO was added to dissolve the formazan product, the amount of which is proportional to the number of live cells. The absorbance of dissolved dye was measured at 540 nm using an automatic microplate reader.

The test system of another data set is HT29 cells. The data set can be described thus: Cytotoxicity assay (cell survival rate, MTT). The settings on record: substrate alone, 2DG for 72 hours. It is filed as cell-based. The protocol: as §1
Data set [2] has as its target T1, AKR1B1 (Homo sapiens, UniProt P15121). To be noted: ND = no detectable activity or less than 32 nmol/min/mg; cited from earlier work.
The target in data set [3] is T2, AKR1B10 (Homo sapiens, UniProt O60218). The settings on record: ND = no detectable activity or less than 32 nmol/min/mg; cited from earlier work.
A further data set relates to HepG2 tumor xenograft. The settings on record: 500 mg/kg, tail vein, daily for 21 days. As to the method: Six-week-old male BALB/C nude mice were purchased from the Laboratory Animal Unit of the University of Hong Kong. Mice were allowed to acclimate to laboratory conditions for 1 week before cancer cells injection. […] Treatment was initiated when the tumor grew to about 200±100 mm3. […] Mice were randomized and allocated to different groups. They received daily tail vein injection for 3 weeks of one of the following: glyceraldehyde (500 mg/kg body weight); diacetyl (80 mg/kg body weight); or normal saline. Mice were weighted and the sizes of the tumors were measured with calipers every 3 days. Tumor volumes were calculated with the formula: length×width2/2. Animals were humanely killed at the end of the experiment and their tumors were weighed.

For data set [4], the system named is CaCo2 cells. The data set can be described thus: Cytotoxicity assay (cell survival rate, MTT). It is filed as cell-based. To be noted: for Cytotoxicity of AKR1Bs substrate (cell survival rate): substrate alone, 2DG for 72 hours; for Protection against 2DG toxicity by AKR1Bs inhibitor (survival rate): inhibitor 24 h, then 2DG (20 mM) for additional 48 h. The protocol: (§2) HepG2 cells, SKOV3 cells, HCT116 cells and CaCo2 cells were cultured in DMEM medium, SW480 cells in 1640 medium, and HT29 cells in McCoy’s 5A medium. All cell culture media were supplemented with 10% FBS, 1% PSN, and cells were cultured in a humidified incubator containing 5% CO2 at 37° C. In cytotoxicity assays, cells were seeded at 1 × 10^5 cells/well in 96 well plates with full medium. In GSH assay and Western blot analysis, cells were seeded at 3× 10^6 cells/well in 6 well plates.
(§3) The AKR1Bs substrates’ cytotoxicity was assessed by cell survival rate using MTT assay. After the cells were treated with the substrates for the length of time indicated, MTT was added to a final concentration of 0.5 mg/ml in each well of a 96-well plate, and the plates were incubated at 37° C. for 4 hour. Then DMSO was added to dissolve the formazan product, the amount of which is proportional to the number of live cells. The absorbance of dissolved dye was measured at 540 nm using an automatic microplate reader.

In data set [5] the test system is SKOV3 cells. The experiment in a line: Cytotoxicity assay (cell survival rate, MTT). The class given is cell-based. To be noted: for Cytotoxicity of AKR1Bs substrate (cell survival rate): substrate alone, 2DG for 72 hours; for Protection against 2DG toxicity by AKR1Bs inhibitor (survival rate): inhibitor 24 h, then 2DG (20 mM) for additional 48 h. As to the method: as §2, §3

In data set [6] the test system is HCT116 cells. The experiment in a line: Cytotoxicity assay (cell survival rate, MTT). The class given is cell-based. To be noted: for Cytotoxicity of AKR1Bs substrate (cell survival rate): substrate alone, 2DG for 72 hours; for Protection against 2DG toxicity by AKR1Bs inhibitor (survival rate): inhibitor 24 h, then 2DG (20 mM) for additional 48 h. As to the method:
as §2, §3

Data set [7] deals with HepG2 cells. The data set can be described thus: Cytotoxicity assay (cell survival rate, MTT). The class given is cell-based. The settings on record: for Cytotoxicity of AKR1Bs substrate (cell survival rate): substrate alone, 2DG for 72 hours; for Protection against 2DG toxicity by AKR1Bs inhibitor (survival rate): inhibitor 24 h, then 2DG (20 mM) for additional 48 h. As to the method:
as §2, §3

The target in data set [8] is T2, AKR1B10. The experiment in a line: Enzyme activity assay (NADPH oxidation), purified AKR1B10. The class given is biochemical. To be noted: 20 mM substrate, pH 7.0, 30° C. As to the method:
(§4) Assay of AKR1B1 and AKR1B10 enzymes activities were conducted in 1 ml of the reaction mixture containing 135 mM sodium phosphate buffer (pH 6.2 for AKR1B1 or pH 7.0 for AKR1B10), 0.2 mM NADPH, 0.3 M ammonium sulfate, 2 µg purified protein and 20 mM of their substrate as indicated. The reaction mix was incubated at 30° C. for 30 minutes (min). Protein-free blank controls were included. The decrease of NADPH was monitored by spectrophotometer at 340 nm. Enzyme activity was calculated as the amount of NADPH oxidized/min/mg of protein (Shen Y et al., Chem Biol Interact. 2011, 191(1-3): 192-198).

Data set [9] has as its target T1, AKR1B1. The experiment in a line: Enzyme activity assay (NADPH oxidation), purified AKR1B1. It is filed as biochemical. To be noted: 20 mM substrate, pH 6.2, 30° C. As to the method: as §4
The test system of data set [10] is CaCo2 cells. The experiment in a line: GSH assay of cell lysates. The class given is cell-based. To be noted: for Restoration of GSH level in 2DG treated cells by AKR1Bs inhibitor: inhibitor (40 µM) 24 h, then 2DG (20 mM) 48 h. As to the method: as §2
(§5) The cells were washed in cold PBS and then scraped into 300 µL of PBS. The cells were disrupted by ultrasonicator on ice followed by centrifuged at 3500 rpm at 4° C. The supernatant was transferred to a fresh tube and used for GSH assay using GSH assay kit. The concentrations of GSH in cell lysates were determined using the standard GSH calibration curve. The GSH detection for each sample was performed at least three times.

Data set [11] has as its system HCT116 cells. The data set can be described thus: GSH assay of cell lysates. The class given is cell-based. To be noted: for Restoration of GSH level in 2DG treated cells by AKR1Bs inhibitor: inhibitor (40 µM) 24 h, then 2DG (20 mM) 48 h. As to the method: as §2, §5
The subject of data set [12] is SKOV3 cells. The data set can be described thus: GSH assay of cell lysates. The class given is cell-based. The protocol:
as §2, §5

For data set [13], the system named is HepG2 cells. The experiment in a line: GSH assay of cell lysates. The class given is cell-based. As to the method: as §2, §5
The test system of another data set is glycolysis. The settings on record: background statement; cited from earlier work.
Setting [14] is: inhibitor (40 µM) 24 h, then 2DG (20 mM) 48 h.

The structures appear in SMILES notation. “Also recorded” adds a separate entry of the source. Where two headings read alike, the source gives them in different places.

T2 sequence (O60218 whole entry): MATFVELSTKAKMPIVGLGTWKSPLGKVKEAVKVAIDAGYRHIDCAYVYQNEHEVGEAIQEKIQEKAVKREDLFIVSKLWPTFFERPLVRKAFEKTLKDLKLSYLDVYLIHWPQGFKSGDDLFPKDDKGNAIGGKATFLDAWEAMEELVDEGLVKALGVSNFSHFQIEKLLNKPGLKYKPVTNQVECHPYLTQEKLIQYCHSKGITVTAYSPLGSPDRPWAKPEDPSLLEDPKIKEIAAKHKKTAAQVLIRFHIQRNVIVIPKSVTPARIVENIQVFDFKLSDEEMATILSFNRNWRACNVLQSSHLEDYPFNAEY

On to `O=CC(O)CO` (racemic) [Glyceraldehyde, glyceraldehyde], for which the LD50 entry in data set [1] (ICR mice, intravenous injection daily for 14 days) is reported as “greater than 2000 mg/kg BW”; in [1] (mouse, in vivo, iv), greater than 2000 mg/kg BW. Further, the “Death Rate” value in data set [1] (mouse, in vivo, iv, 1000 mg/kg) stood at 0%; in data set [1] (mouse, in vivo, iv, 2000 mg/kg), 0%. In addition, the “Cytotoxicity of AKR1Bs substrate (cell survival rate)” value was “more resistant” in the data set on SW480 cells; “more resistant” in the data set on HT29 cells; “dose dependently and preferentially kill” with CaCo2 cells [4]; “dose-dependently and preferentially kill; also recorded: dose dependently and preferentially kill; also recorded: most efficient” in the data set on SKOV3 cells [5]; “dose dependently and preferentially kill” in the data set with HCT116 cells [6]; “dose-dependently and preferentially kill; also recorded: dose dependently and preferentially kill; also recorded: most efficient” with HepG2 cells [7]. Moreover, at AKR1B1 [2], the “AKR1B1 activity, amount of NADPH (nmol) oxidized per min per mg of protein” value is reported as 1681 nmol/min/mg. Moreover, the “AKR1B10 activity, amount of NADPH (nmol) oxidized per min per mg of protein” value at AKR1B10 [3] was 1853 nmol/min/mg. For the same compound, the Tumor volume result in the data set with HepG2 tumor xenograft is listed as “significantly reduced”. For the same compound, in the data set on HepG2 tumor xenograft, the Tumor weight entry was “significantly reduced”. For the same compound, the “Efficiency as substrate of AKR1B10 (rate of NADPH depletion)” value on AKR1B10 [8] is recorded as “excellent substrate”. In addition, the entries for the “Efficiency as substrate of AKR1B1 (rate of NADPH depletion)” value at AKR1B1 [9] and at AKR1B1 [9] (listed as glyceraldehyde) were “excellent substrate” and “best substrate”, respectively.
Take `NC(=O)[C@@H]1C[C@]2(NC(=O)NC2=O)c2cc(F)ccc2O1` [Fidarestat]: the “Protection against 2DG toxicity by AKR1Bs inhibitor (survival rate)” value with CaCo2 cells [4] was “protected”; in the data set with SKOV3 cells [5], “less effective in protecting”; with HCT116 cells [6], “protected”; in the data set with HepG2 cells [7], “less effective in protecting”. Moreover, the “Restoration of GSH level in 2DG treated cells by AKR1Bs inhibitor” value with CaCo2 cells [10] and in the data set with HCT116 cells [11] was “able to increase” each time.
As to `O=CC[C@@H](O)[C@H](O)[C@H](O)CO` [2DG, 2-deoxyglucose], the “Cytotoxicity of AKR1Bs substrate (cell survival rate)” value in the data set with SW480 cells is “more resistant”; with HT29 cells, “more resistant”; in the data set on CaCo2 cells [4] it was “more sensitive to 2DG than HepG2 and SKOV3”; in the data set with SKOV3 cells [5], “more sensitive; also recorded: not as efficient as glyceraldehyde and diacetyl”; in the data set on HCT116 cells [6], “more sensitive to 2DG than HepG2 and SKOV3”; with HepG2 cells [7], “more sensitive; also recorded: not as efficient as glyceraldehyde and diacetyl”. Also, the “AKR1B1 activity, amount of NADPH (nmol) oxidized per min per mg of protein” value on AKR1B1 [2] is 149 nmol/min/mg. For the same compound, on AKR1B10 [3], the “AKR1B10 activity, amount of NADPH (nmol) oxidized per min per mg of protein” value was 87 nmol/min/mg. Moreover, the “Efficiency as substrate of AKR1B10 (rate of NADPH depletion)” value was “then 2DG” at AKR1B10 [8] and “worst substrate among the three” at AKR1B10 [8] (listed as 2 DG). In addition, the “GSH level in the presence of 2DG” value in the data set on CaCo2 cells [10] (2DG (20 mM) 48 h), in the data set with SKOV3 cells [12] (2DG (20 mM) 48 h), in the data set with HCT116 cells [11] (2DG (20 mM) 48 h) and in the data set with HepG2 cells [13] (2DG (20 mM) 48 h) was “decreased significantly” each time. Moreover, the “Efficiency as substrate of AKR1B1 (rate of NADPH depletion)” value was “then 2DG” on AKR1B1 [9] and “worst substrate among the three” at AKR1B1 [9] (listed as 2 DG). The Inhibition of glycolysis in the data set with glycolysis is 15-40%.
For `O=C[C@H](F)[C@@H](O)[C@H](O)[C@H](O)CO` [2FDG, 2-fluorodeoxy-D-glucose], the “Potency as glycolysis inhibitor relative to 2DG” value in the data set with glycolysis is “more potent glycolysis inhibitor than 2DG”.
`COc1ccc2c(C(=S)N(C)CC(=O)O)cccc2c1C(F)(F)F` [Tolrestat]: the “Protection against 2DG toxicity by AKR1Bs inhibitor (survival rate)” value in the data set with CaCo2 cells [4], in the data set with SKOV3 cells [5], with HCT116 cells [6] and with HepG2 cells [7] was “dose-dependently protected” in each case. In addition, the “Restoration of GSH level in 2DG treated cells by AKR1Bs inhibitor” value in the data set on CaCo2 cells [10], in the data set on SKOV3 cells [12] (setting [14]), in the data set on HCT116 cells [11] and with HepG2 cells [13] (setting [14]) was “significantly restored” throughout.

Source of the values: US20230190774A1, “METHOD OF USING SUBSTRATES OF AKR1Bl/AKR1B10 AS ANTI-CANCER DRUGS” (Beijing Normal University Hong Kong Baptist University …, priority 2015, published 2023).
